In US20120283175A1, “ANTIBACTERIAL COMPOSITIONS” (Achaogen, Inc., priority 2009, published 2012):
Values after ≈ are worked out from the molar mass of the structure shown. “Also recorded” adds a separate entry of the source. Read-outs that look alike come from different tables or passages of the source.

Legend:
Pseudomonas aeruginosa = experiment: Checkerboard synergy assay with LpxCi-4; assay type: cell-based; conditions: combination with LpxCi-4 (3936), Pseudomonas aeruginosa (ATCC27853 in text)
Description: (§1) One classic method for assessing synergy, referred to as the checkerboard assay, is used to predict the efficacy of antibacterial agents, and is described by Scribner et. al., (Antimicrobial Agents and Chemotherapy 21(6):939-943 (1982)) and in Goodman & Gilman (The Pharmacological Basis of Therapeutics, Sixth Edition, pp. 1097-1098 (1980)). The checkerboard assay involves serial two-fold dilutions of the antibiotics individually and in combination in broth, which is then inoculated with the microorganism to be tested. After incubation, the minimum inhibitory concentration (MIC) of each drug used individually and in combination is determined (N.B., the MIC is the lowest concentration of the drug that inhibits growth in the medium). Synergism is indicated by a decrease in the MIC of each drug when used in combination. Antagonism is indicated by an increase in the MIC of either or both drugs when used in combination. Alternate methods of assessing synergy are reviewed in Greco, et al., Pharmacological Reviews 47(2):[…] (1995), incorporated herein by reference in its entirety.
(§2) Partial or full inhibition of LpxC should compromise the outer membrane and thus allow these synergizing agents to enter the cells and exert an antibacterial effect at concentrations where cells untreated with an LpxC inhibitor are unaffected. As a first step, checkerboard synergy assays for a variety of antibacterial agents were perform with several LpxC inhibitors, on several species of gram negative bacteria.
(§3) Bacterial isolates were cultivated from −70° C. frozen stocks of the indicated strains by overnight passages at 35° C. in ambient air on Mueller-Hinton agar (Beckton Dickinson, Franklin Lakes, N.J.). Minimum Inhibitory Concentrations (MICs) were determined by the broth microdilution method in accordance with the Clinical and Laboratory Standards Institute (CLSI) guidelines. In brief, organism suspensions were adjusted to a 0.5 McFarland standard to yield a final inoculum between 3×10^5 and 7×10^5 colony-forming units (CFU)/mL. Drug dilutions and inocula were made in sterile, cation adjusted Mueller-Hinton Broth (Beckton Dickinson). An inoculum volume of 100 μL was added to wells containing 100 μL of broth with 2-fold serial dilutions of drug. All inoculated microdilution trays were incubated in ambient air at 35° C. for 18-24 hours. Following incubation, the lowest concentration of the drug that prevented visible growth (OD600 nm <0.05) was recorded as the MIC.
(§4) Standard checkerboard assays were performed with a combination of the indicated agents and LpxCi-4. Table 2 provides the FICI calculated according to standard techniques.

Klebsiella pneumoniae = experiment: Checkerboard synergy assay with LpxCi-4; assay type: cell-based; conditions: combination with LpxCi-4
Description: as §1, §2, §3, §4

gram negative bacteria = experiment: Checkerboard synergy score at fractions of the antibacterial agent's MIC, with LpxCi-1, -2, -3; assay type: cell-based; set-up: scale not given here
Procedure: as §2, §3

envA1 (D22) E. coli = experiment: MIC by broth microdilution, isogenic envA1 mutant strain; assay type: cell-based; conditions: for MIC: Strain envA1 (D21); for Fold decrease in MIC (envA+/envA1): envA+ vs envA1 E. coli
Procedure: as §3

[1] = test system: P. aeruginosa (ATCC27853); conditions: for ΔLogCFU vs 24 hr / Log CFU Mean: 24 hr; for Log CFU Mean: n=5
Description: (§5) The model was run essentially as described by Craig and others (see Gudmundsson et al., “Murine Thigh Infection Model,” Handbook of Animal Models of Infection, M. A. Sande and O. Zak, Eds.; London: Academic Press, 1999, pp 137-144). Briefly, mice were rendered neutropenic prior to infection with 2 doses of cyclophosphamide, and then infected intramuscularly in the thigh with inocula of 10^3-10^5 CFU of either K. pneumo. (ATCC43816) or P. aeruginosa (ATCC27853). Antibiotics or vehicle alone as a negative control were administered twice at 2 hrs and 14 hrs post-infection. The animals were kept neutropenic for the duration of the experiment in order to minimize the effect of white blood cells on the infection such that the microbiological readout measures the in vivo interaction of drugs and bacteria. At 24 hrs post-infection, thighs were harvested, homogenized, and plated to measure the number of CFUs surviving per thigh. Thighs from a subset of animals were also harvested 2 hrs post-infection to record the CFUs present just prior to the first antibiotic treatment (pre-treatment).
This table focuses on the sensitive part of the LpxCi-4 dose response curve (30 mg/kg) by examining the mean log CFU at 0 or 24 hours, as well as the log change in CFU at 24 hours relative to zero hours (“ΔLogCFU vs […]”). Data is given for animals treated with vehicle, LpxCi-4 at 30 mg/kg, a second agent alone at the indicated doses or the combination of LpxCi-4 at 30 mg/kg plus the second agent at the indicated dose. The standard errors for each measurement are also given (n=5 animals/group). By comparing the observed drop in CFU of the combination with the sum of the drop in CFU associated with each of the two agents given separately, one can determine whether the combination is, in fact, synergistic in vivo.

envA+ (D21) E. coli = experiment: MIC by broth microdilution, isogenic envA+ strain; assay type: cell-based
Procedure: as §3

E. coli ATCC25922 = experiment: MIC by broth microdilution, wild type strain ATCC25922; assay type: cell-based
Procedure: as §3

Yersinia enterocolitica = experiment: Checkerboard synergy assay with LpxCi-4; assay type: cell-based; conditions: combination with LpxCi-4
Description: as §1, §2, §3, §4

K. pneumo. (ATCC43816) = experiment: Neutropenic thigh in vivo efficacy model (mice); set-up: species or system Klebsiella pneumoniae; conditions: K. pneumo. (ATCC43816); summary
Description: as §5

[2] = second block of Table 5, mg/kg/day b.i.d.: 3936 30, Eryth. 60, Dapto. 3, Oxacil. 100
[3] = first block of Table 5, mg/kg/day b.i.d.: 3936 30, Rif. 30, Azith. 50

Molecule	FICI index (Pseudomonas aeruginosa)	FICI index (Klebsiella pneumoniae)	MIC (envA1 (D22) E. coli)	MIC (envA+ (D21) E. coli)	MIC (E. coli ATCC25922)	FICI index (Yersinia enterocolitica)	further results
CC(=O)NC[C@H]1CN(c2ccc(N3CCOCC3)c(F)c2)C(=O)O1 [Linezolid, linezolid]	no effect	≦0.5	–	–	–	–	Synergy Score (gram negative bacteria; with LpxCi-1, antibacterial agent at 1/16 MIC): 0.46; Synergy Score (gram negative bacteria; with LpxCi-1, antibacterial agent at 1/64 MIC): 1.03; Synergy Score (gram negative bacteria; with LpxCi-1, antibacterial agent at ¼ MIC): 0.54; Synergy Score (gram negative bacteria; with LpxCi-2, antibacterial agent at ¼ MIC): 1.25; Synergy Score (gram negative bacteria; with LpxCi-3, antibacterial agent at 1/16 MIC): 1.06; Synergy Score (gram negative bacteria; with LpxCi-3, antibacterial agent at 1/64 MIC): 1.02; Synergy Score (gram negative bacteria; with LpxCi-3, antibacterial agent at ¼ MIC): 0.58
CCCCCCCCCC(=O)N[C@@H](Cc1c[nH]c2ccccc12)C(=O)N[C@H](CC(N)=O)C(=O)N[C@@H](CC(=O)O)C(=O)N[C@@H]1C(=O)NCC(=O)N[C@@H](CCCN)C(=O)N[C@@H](CC(=O)O)C(=O)N[C@H](C)C(=O)N[C@@H](CC(=O)O)C(=O)NCC(=O)N[C@H](CO)C(=O)N[C@@H]([C@H](C)CC(=O)O)C(=O)N[C@@H](CC(=O)c2ccccc2N)C(=O)O[C@@H]1C [Daptomycin, daptomycin]	no measurable synergy; also recorded: no effect	no measurable synergy; also recorded: no effect	32 µg/mL (≈ 19.7 µM)	256 µg/mL (≈ 158 µM)	> 256 µg/mL	–	Fold decrease in MIC (envA+/envA1) (envA1 (D22) E. coli): 8; MIC shift due to modification of envA (envA1 (D22) E. coli; isogenic envA1 (D22) vs envA+ (D21) E. coli): 8 ×; ΔLogCFU vs 24 hr [1, 2]: −1.04; Log CFU Mean [1, 2]: 6.6
Nc1nc(/C(=N/O)C(=O)N[C@@H]2C(=O)N3C(C(=O)O)=C(/C=C4\CCN([C@@H]5CCNC5)C4=O)CS[C@H]23)ns1 [Ceftobioprole]	0.5	0.63	–	–	–	0.5	–
gentamicin	0.38	0.75	–	–	–	0.5	–
CO[C@H]1/C=C/O[C@@]2(C)Oc3c(C)c(O)c4c(O)c(c(/C=N/N5CCN(C)CC5)c(O)c4c3C2=O)NC(=O)/C(C)=C\C=C\[C@H](C)[C@H](O)[C@@H](C)[C@@H](O)[C@@H](C)[C@H](OC(C)=O)[C@@H]1C [Rifampin, rifampin]	≦1.0	≦0.08	0.25 µg/mL (≈ 0.304 µM)	16 µg/mL (≈ 19.4 µM)	16 µg/mL (≈ 19.4 µM)	0.19	FICI index (Pseudomonas aeruginosa; listed as rifampin): < 1.0; in vivo synergy with multiple LpxC inhibitors (K. pneumo. (ATCC43816)): surprising in vivo synergy; ΔLogCFU vs 24 hr [1, 3]: −0.28; Log CFU Mean [1, 3]: 7.46; in vivo synergy with LpxC inhibitors ([1]; P. aeruginosa (ATCC27853), summary): surprising in vivo synergy; drop in CFU relative to vehicle ([1]; each agent at 30 mg/kg): 0.28 log
CCC[C@@H]1C[C@@H](C(=O)N[C@@H]([C@H]2O[C@H](SC)[C@H](O)[C@@H](O)[C@H]2O)[C@H](C)Cl)N(C)C1 [Clindamycin, clindamycin]	no effect	≦0.5	–	–	–	0.13	–
C[C@H]1COc2c(N3CCN(C)CC3)c(F)cc3c(=O)c(C(=O)O)cn1c23 [Levofloxacin]	no effect	0.5	–	–	–	0.63	–
CO/N=C(\C(=O)N[C@@H]1C(=O)N2C(C(=O)O)=C(COC(C)=O)CS[C@H]12)c1csc(N)n1 [Cefotaxime, cefotaxime]	≦1.0	0.5	–	–	–	≦0.5	–
teicoplanin	no effect	≦0.37	32 µg/mL	> 256 µg/mL	> 256 µg/mL	≦0.25	Fold decrease in MIC (envA+/envA1) (envA1 (D22) E. coli): ≧8
